JAK2/JAK1 and IC50 data for 9 molecules are collected here from US11992490B2, “Use of JAK1 inhibitors for the treatment of cutaneous lupus erythematosus and Lichen planus (LP)” (Incyte Corporation, priority 2019, dated 2024).

For assay [1], the target named is human JAK2 (a.a. 828-1132) (Homo sapiens (Human), UniProt O60674). As to the kind of experiment: In vitro JAK kinase assay (HTRF), JAK2. The assay is classed as biochemical. The settings on record: JAK2/JAK1 IC50 ratio, 1 mM ATP. (In general: In TR-FRET formats the signal depends on donor and acceptor labels being close together.)
The target of assay [2] is human JAK1 (a.a. 837-1142) (Homo sapiens, UniProt P23458). Nature of the assay: In vitro JAK kinase assay (HTRF), JAK1. The settings on record: 1 mM ATP. The assay is classed as biochemical.

human JAK2 (a.a. 828-1132), sequence (O60674 828-1132): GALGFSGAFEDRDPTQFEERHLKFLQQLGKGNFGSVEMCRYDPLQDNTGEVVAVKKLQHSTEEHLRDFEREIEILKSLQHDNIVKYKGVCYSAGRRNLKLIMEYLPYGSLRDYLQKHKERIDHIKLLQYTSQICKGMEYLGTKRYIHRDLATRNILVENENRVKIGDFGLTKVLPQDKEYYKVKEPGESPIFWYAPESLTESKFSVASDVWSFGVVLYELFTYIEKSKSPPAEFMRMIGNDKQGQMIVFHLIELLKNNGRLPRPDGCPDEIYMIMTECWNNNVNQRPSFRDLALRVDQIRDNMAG

The term IC50 denotes the point on the concentration scale where inhibition reaches its midpoint. As to `N#CCC(C1CCN(c2cccc(Cl)n2)C1)n1cc(-c2ncnc3[nH]ccc23)cn1` (single isomer, unassigned) [Compound 6, 3-[1-(6-chloropyridin-2-yl)pyrrolidin-3-yl]-3-[4-(7H-pyrrolo[2,3-d]pyrimidin-4-yl)-1H-pyrazol-1-yl]propanenitrile], the JAK2/JAK1 in assay [1] is recorded as over 10. Besides, the half-inhibitory concentration (IC50) in assay [2] is under 10 nM.

Turning to `N#CCC1(n2cc(-c3ncnc4[nH]ccc34)cn2)CN(C2CCN(C(=O)Nc3ccc(F)cc3C(F)(F)F)CC2)C1` [Compound 2, 4-{3-(Cyanomethyl)-3-[4-(7H-pyrrolo[2,3-d]pyrimidin-4-yl)-1H-pyrazol-1-yl]azetidin-1-yl}-N-[4-fluoro-2-(trifluoromethyl)phenyl]piperidine-1-carboxamide], the JAK2/JAK1 in assay [1] is listed as over 10. In assay [2], this molecule gave an IC50 of under 10 nM.

In the case of `N#CCC1(n2cc(-c3ncnc4[nH]ccc34)cn2)CN(C2CCN(C(=O)c3ccnc(C(F)(F)F)n3)CC2)C1` [Compound 3, [3-[4-(7H-pyrrolo[2,3-d]pyrimidin-4-yl)-1H-pyrazol-1-yl]-1-(1-{[2-(trifluoromethyl)pyrimidin-4-yl]carbonyl}piperidin-4-yl)azetidin-3-yl]acetonitrile], in assay [1], the JAK2/JAK1 is given as over 10. The molecule also registered an IC50 in assay [2] of under 10 nM.

In the case of `C[C@@H](O)c1nc2cnc3ccsc3c2n1[C@H]1CC[C@H](CC#N)OC1` [Compound 5, ((2R,5S)-5-{2-[(1R)-1-hydroxyethyl]-1H-imidazo[4,5-d]thieno[3,2-b]pyridin-1-yl}tetrahydro-2H-pyran-2-yl)acetonitrile], the JAK2/JAK1 in assay [1] is given as over 10. The same molecule registered a 50% inhibitory concentration (IC50) in assay [2] of under 100 nM.

For `N#CCC(C1CCN(c2nc3cccnc3o2)C1)n1cc(-c2ncnc3[nH]ccc23)cn1` (stereo not drawn) [Compound 7, 3-(1-[1,3]oxazolo[5,4-b]pyridin-2-ylpyrrolidin-3-yl)-3-[4-(7H-pyrrolo[2,3-d]pyrimidin-4-yl)-1H-pyrazol-1-yl]propanenitrile], the JAK2/JAK1 in assay [1] was over 10. Besides, the IC50 in assay [2] was under 10 nM.

As to `N#CCC(CN1CCN(C(=O)c2ccc(C#N)cc2F)CC1)n1cc(-c2ncnc3[nH]ccc23)cn1` (stereo not drawn) [Compound 8, 4-[(4-{3-cyano-2-[4-(7H-pyrrolo[2,3-d]pyrimidin-4-yl)-1H-pyrazol-1-yl]propyl}piperazin-1-yl)carbonyl]-3-fluorobenzonitrile], the JAK2/JAK1 in assay [1] is given as over 10. The molecule further registered a half-inhibitory concentration (IC50) in assay [2] of under 10 nM.

For the molecule `N#CCC(CN1CCN(C(=O)c2ccc(C#N)cc2F)CC1)n1ccc(-c2ncnc3[nH]ccc23)c1` (stereo not drawn) [Compound 9, 4-[(4-{3-cyano-2-[3-(7H-pyrrolo[2,3-d]pyrimidin-4-yl)-1H-pyrrol-1-yl]propyl}piperazin-1-yl)carbonyl]-3-fluorobenzonitrile], the JAK2/JAK1 in assay [1] is over 10. In assay [2], the concentration for half-maximal inhibition (IC50) is under 10 nM.

`N#CC[C@]1(n2cc(-c3ncnc4[nH]ccc34)cn2)C[C@H](N2CCN(C(=O)c3ccnc(C(F)(F)F)n3)CC2)C1` [Compound 10, [trans-1-[4-(7H-pyrrolo[2,3-d]pyrimidin-4-yl)-1H-pyrazol-1-yl]-3-(4-{[2-(trifluoromethyl)pyrimidin-4-yl]carbonyl}piperazin-1-yl)cyclobutyl]acetonitrile]: the JAK2/JAK1 in assay [1] was over 10. For the same molecule, the concentration for half-maximal inhibition (IC50) in assay [2] is under 10 nM.

As for `N#CC[C@]1(n2cc(-c3ncnc4[nH]ccc34)cn2)C[C@H](N2CCC(Oc3cc(CN4CC(O)C4)cc(C(F)(F)F)n3)CC2)C1` [Compound 11, {trans-3-(4-{[4-[(3-hydroxyazetidin-1-yl)methyl]-6-(trifluoromethyl)pyridin-2-yl]oxy}piperidin-1-yl)-1-[4-(7H-pyrrolo[2,3-d]pyrimidin-4-yl)-1H-pyrazol-1-yl]cyclobutyl}acetonitrile], the JAK2/JAK1 in assay [1] is reported as over 10. The half-inhibitory concentration (IC50) in assay [2] was under 10 nM.
